The values that follow come from PMC8385029 (Scientific Reports, 2021).

For data set [1], the target named is T1, SyAcnB (Synechocystis sp. PCC 6803 aconitase B) (Synechocystis sp. PCC 6803, UniProt P74582).
T1 construct: gene acnB; full-length, synthetic gene in pGEX6P-1 (BamHI-XhoI), GST tag (elution with glutathione, no cleavage described), E. coli DH5alpha
T1 sequence (P74582 1-868): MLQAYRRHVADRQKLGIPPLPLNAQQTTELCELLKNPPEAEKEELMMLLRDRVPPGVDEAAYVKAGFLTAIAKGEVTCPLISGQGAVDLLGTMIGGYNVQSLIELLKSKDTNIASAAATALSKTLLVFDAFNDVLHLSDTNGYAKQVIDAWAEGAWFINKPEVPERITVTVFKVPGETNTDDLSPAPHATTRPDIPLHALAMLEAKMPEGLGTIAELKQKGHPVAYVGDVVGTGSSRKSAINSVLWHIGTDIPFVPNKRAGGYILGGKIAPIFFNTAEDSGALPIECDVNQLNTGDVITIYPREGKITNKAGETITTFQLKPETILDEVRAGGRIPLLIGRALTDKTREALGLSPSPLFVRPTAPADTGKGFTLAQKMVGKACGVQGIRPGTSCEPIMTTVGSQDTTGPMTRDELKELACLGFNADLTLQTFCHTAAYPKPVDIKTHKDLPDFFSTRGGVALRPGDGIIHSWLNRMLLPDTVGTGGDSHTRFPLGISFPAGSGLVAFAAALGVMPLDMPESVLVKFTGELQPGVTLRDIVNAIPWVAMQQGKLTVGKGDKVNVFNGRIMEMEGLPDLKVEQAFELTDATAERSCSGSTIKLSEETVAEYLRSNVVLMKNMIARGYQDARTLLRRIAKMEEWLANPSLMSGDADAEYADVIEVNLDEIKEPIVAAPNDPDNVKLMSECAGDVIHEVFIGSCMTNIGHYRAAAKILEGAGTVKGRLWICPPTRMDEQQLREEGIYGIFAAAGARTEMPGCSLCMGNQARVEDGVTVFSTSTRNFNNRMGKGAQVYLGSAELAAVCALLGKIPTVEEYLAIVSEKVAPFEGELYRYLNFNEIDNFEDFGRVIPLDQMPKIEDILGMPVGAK
The data set is described as follows: cis-aconitate formation, A240. The class given is biochemical. As to conditions: read-out: % residual activity at 5 mM.

Substrate in data set [2]: O=C(O)CC(O)(CC(=O)O)C(=O)O
The experiment in a line: purified protein. As to conditions: Tris-HCl pH 7.7, 45 °C; reactivated holo-enzyme.

Substrate in data set [3]: O=C(O)CC(C(=O)O)C(O)C(=O)O
The data set is described as follows: cis-aconitate formation, A240. As to conditions: Tris-HCl pH 8.0, 53 °C; reactivated holo-enzyme; DL-isocitrate used. The class given is biochemical, Synechocystis sp. PCC 6803.

Consider `N[C@@H](CCC(=O)O)C(=O)O` [L-glutamate], for which the remaining activity at 5000 µM in data set [1] worked out at 85%.
Same read-out and setting: in the case of `CC(=O)C(=O)O` [pyruvate] it was 69%.
`NC(=O)CC[C@H](N)C(=O)O` [L-glutamine]: the remaining activity at 5000 µM in data set [1] turned out to be 81%.
On the same count and under the same terms, for `O=C(O)CCC(=O)C(=O)O` [2-OG] the value was 72%; for `N[C@@H](CC(=O)O)C(=O)O` [L-aspartate], 84%.

B1: SyAcnB (Synechocystis sp. PCC 6803 aconitase B) (Synechocystis sp. PCC 6803 substr. Kazusa) (protein)
chain: MLQAYRRHVADRQKLGIPPLPLNAQQTTELCELLKNPPEAEKEELMMLLRDRVPPGVDEAAYVKAGFLTAIAKGEVTCPLISGQGAVDLLGTMIGGYNVQSLIELLKSKDTNIASAAATALSKTLLVFDAFNDVLHLSDTNGYAKQVIDAWAEGAWFINKPEVPERITVTVFKVPGETNTDDLSPAPHATTRPDIPLHALAMLEAKMPEGLGTIAELKQKGHPVAYVGDVVGTGSSRKSAINSVLWHIGTDIPFVPNKRAGGYILGGKIAPIFFNTAEDSGALPIECDVNQLNTGDVITIYPREGKITNKAGETITTFQLKPETILDEVRAGGRIPLLIGRALTDKTREALGLSPSPLFVRPTAPADTGKGFTLAQKMVGKACGVQGIRPGTSCEPIMTTVGSQDTTGPMTRDELKELACLGFNADLTLQTFCHTAAYPKPVDIKTHKDLPDFFSTRGGVALRPGDGIIHSWLNRMLLPDTVGTGGDSHTRFPLGISFPAGSGLVAFAAALGVMPLDMPESVLVKFTGELQPGVTLRDIVNAIPWVAMQQGKLTVGKGDKVNVFNGRIMEMEGLPDLKVEQAFELTDATAERSCSGSTIKLSEETVAEYLRSNVVLMKNMIARGYQDARTLLRRIAKMEEWLANPSLMSGDADAEYADVIEVNLDEIKEPIVAAPNDPDNVKLMSECAGDVIHEVFIGSCMTNIGHYRAAAKILEGAGTVKGRLWICPPTRMDEQQLREEGIYGIFAAAGARTEMPGCSLCMGNQARVEDGVTVFSTSTRNFNNRMGKGAQVYLGSAELAAVCALLGKIPTVEEYLAIVSEKVAPFEGELYRYLNFNEIDNFEDFGRVIPLDQMPKIEDILGMPVGAK
notes: full-length, synthetic gene in pGEX6P-1 (BamHI-XhoI), GST tag (elution with glutathione, no cleavage described), E. coli DH5alpha
For the molecule B1, the Km turned out to be 1130 ± 40 µM in data set [2] and 1540 ± 170 µM in data set [3]. Besides, the kcat in data set [2] was determined as 9.12 ± 0.14 s⁻¹; in data set [3] it was 16.67 ± 0.34 s⁻¹.
